According to US11040957B2, “Heteroaromatic compounds useful for the treatment of proliferative diseases” (Syros Pharmaceuticals, Inc., priority 2013, dated 2021):

How the values were obtained:
CDK5/p25 = molecular target: T1, CDK5/p25 (Homo sapiens, UniProt Q00535); assay: Z'-LYTE kinase assay, CDK5/p25; format: biochemical
T1 construct: purchased Life Technologies (Grand Island, N.Y.), Z'-LYTE kinase assay service
Description: (§1) Compounds of the invention were assayed for activity against a variety of different kinases at Life Technologies™ (Grand Island, N.Y.) using their commercially available ADAPTA® (for CDK7, CDK9/cyclin T1, and IRAK1 kinases), Z′-LYTE® (for CDK1, CDK2, CDK5/p25, CDK5/p35, JNK1 and JNK2 kinases) and LANTHASCREEN EU® (for CDK8, CDK9/cyclin K and MLK3) kinase assay services. Test compounds were tested at 100 nM and 1 μM final concentrations in 1% DMSO against all kinases except CDK7. For CDK7, test compounds were tested at concentrations ranging from 10 μM down to 0.514 nM in a series of 3-fold serial dilutions. Details of these assays, including substrates used for each kinase, are available on the Life Technologies web site (www.lifetechnologies.com/). The results of the assay are shown below in Tables 2A and 2B. […] The co-factors used for each kinase in the assays were as follows CDK1—cyclin B; CDK2—cyclin A; CDK5—p25 or p35 as indicated; CDK7—cyclin H and MNAT1; CDK8—cyclin C; CDK9—cyclin K or cyclin T1 as indicated; IRAK1—Histone H3 (1-20) peptide; JNK1—none required; JNK2—none required; MLK3—none required.

MLK3 = molecular target: T2, MLK3 (Homo sapiens, UniProt Q16584); assay: LANTHASCREEN EU kinase assay, MLK3; format: binding; settings: calculated; read-out: C50 against MLK3
T2 construct: purchased Life Technologies (Grand Island, N.Y.), LA[…] kinase assay service
Description: as §1, with “Test compounds were tested at 100 nM and 1 μM final concentrations in 1% DMSO against all kinases except CDK7.” left out

Jurkat cells = assay: Inhibition of proliferation of Jurkat cells ([…]-GLO, 72 hour); format: cell-based; settings: Homo sapiens
Description: Representative compounds of the invention were tested at different concentrations (from 10 μM to […]; 0.5 log serial dilutions) for their ability to inhibit the proliferation of Jurkat cells. Cells were grown in RPMI 1640+10% FBS+1% Glutamax supplemented with FBS (Life Technologies) and 100 U.mL^−1 penicillin, 100 μg·mL^−1 streptomycin (Invitrogen) and cultured at 37° C. in a humidified chamber in the presence of 5% CO2. Proliferation assays were conducted over a 72 hour time period. […]-GLO® (Promega Corporation, Madison, Wis. USA) was used to assess the anti-proliferative effects of the compounds following manufacturer's directions and utilizing the reagents supplied with the […]-GLO® kit. In this table, “A” represents an IC50 of less than 500 nM; “B” an IC50 of between 500 nM and 5 μM; and “C” an IC50 of greater than 5 μM.

CDK7 = molecular target: T3, CDK7 (Homo sapiens, UniProt P50613); assay: ADAPTA kinase assay, CDK7 (Life Technologies); format: biochemical; settings: co-factors cyclin H and MNAT1; 10 μM down to 0.514 nM, 3-fold serial dilutions; read-out: CDK7 calculated IC50
T3 construct: purchased Life Technologies (Grand Island, N.Y.), ADAPTA kinase assay service
Description: Test compounds were tested at 100 nM and 1 μM final concentrations in 1% DMSO against all kinases except CDK7. For CDK7, test compounds were tested at concentrations ranging from 10 μM down to 0.514 nM in a series of 3-fold serial dilutions. […] The co-factors used for each kinase in the assays were as follows CDK1—cyclin B; CDK2—cyclin A; CDK5—p25 or p35 as indicated; CDK7—cyclin H and MNAT1; CDK8—cyclin C; CDK9—cyclin K or cyclin T1 as indicated; IRAK1—Histone H3 (1-20) peptide; JNK1—none required; JNK2—none required; MLK3—none required.

CDK1 = molecular target: T4, CDK1 (Homo sapiens, UniProt P06493); assay: Z'-LYTE kinase assay, CDK1; format: biochemical; settings: cyclin B co-factor
T4 construct: purchased Life Technologies (Grand Island, N.Y.), Z'-LYTE kinase assay service
Description: as §1

CDK2 = molecular target: T5, CDK2 (Homo sapiens, UniProt P24941); assay: Z'-LYTE kinase assay, CDK2; format: biochemical; settings: cyclin A co-factor
T5 construct: purchased Life Technologies (Grand Island, N.Y.), Z'-LYTE kinase assay service
Description: as §1

CDK5/p35 = molecular target: T6, CDK5/p35 (Homo sapiens, UniProt Q00535); assay: Z'-LYTE kinase assay, CDK5/p35; format: biochemical; settings: p35 co-factor
T6 construct: purchased Life Technologies (Grand Island, N.Y.), Z'-LYTE kinase assay service
Description: as §1

CDK8 = molecular target: T7, CDK8 (Homo sapiens, UniProt P49336); assay: LANTHASCREEN EU kinase assay, CDK8; format: binding; settings: cyclin C co-factor
T7 construct: purchased Life Technologies (Grand Island, N.Y.), LA[…] kinase assay service
Description: as §1

CDK9/cyclin T1 = molecular target: T8, CDK9/cyclin T1 (Homo sapiens, UniProt P50750); assay: ADAPTA kinase assay, CDK9/cyclin T1; format: biochemical; settings: cyclin T1 co-factor
T8 construct: purchased Life Technologies (Grand Island, N.Y.), ADAPTA kinase assay service
Description: as §1

CDK9/cyclin K = molecular target: T9, CDK9/cyclin K (Homo sapiens, UniProt P50750); assay: LANTHASCREEN EU kinase assay, CDK9/cyclin K; format: binding; settings: cyclin K co-factor
T9 construct: purchased Life Technologies (Grand Island, N.Y.), LANTHASCREEN EU kinase assay service
Description: as §1

JNK1 = molecular target: T10, JNK1 (Homo sapiens, UniProt P45983); assay: Z'-LYTE kinase assay, JNK1; format: biochemical
T10 construct: purchased Life Technologies (Grand Island, N.Y.), Z'-LYTE kinase assay service
Description: as §1

JNK2 = molecular target: T11, JNK2 (Homo sapiens, UniProt P45984); assay: Z'-LYTE kinase assay, JNK2; format: biochemical
T11 construct: purchased Life Technologies (Grand Island, N.Y.), Z'-LYTE kinase assay service
Description: as §1

T1 sequence (Q00535 whole entry): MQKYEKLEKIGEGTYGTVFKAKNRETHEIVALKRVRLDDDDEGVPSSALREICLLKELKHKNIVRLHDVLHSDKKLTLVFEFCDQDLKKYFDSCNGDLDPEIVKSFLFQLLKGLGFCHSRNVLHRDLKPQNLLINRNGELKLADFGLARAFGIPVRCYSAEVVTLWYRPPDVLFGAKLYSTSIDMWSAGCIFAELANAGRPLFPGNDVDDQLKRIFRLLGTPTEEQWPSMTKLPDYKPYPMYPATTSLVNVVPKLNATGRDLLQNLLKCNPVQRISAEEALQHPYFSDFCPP
T1 sequence (Q15078 99-307 partner limits assumed): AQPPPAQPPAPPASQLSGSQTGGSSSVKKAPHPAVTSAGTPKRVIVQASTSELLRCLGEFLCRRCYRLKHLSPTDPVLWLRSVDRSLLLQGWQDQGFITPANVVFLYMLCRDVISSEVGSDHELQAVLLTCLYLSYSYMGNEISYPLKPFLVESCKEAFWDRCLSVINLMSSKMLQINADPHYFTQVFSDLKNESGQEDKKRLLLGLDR
T9 sequence (P50750 whole entry): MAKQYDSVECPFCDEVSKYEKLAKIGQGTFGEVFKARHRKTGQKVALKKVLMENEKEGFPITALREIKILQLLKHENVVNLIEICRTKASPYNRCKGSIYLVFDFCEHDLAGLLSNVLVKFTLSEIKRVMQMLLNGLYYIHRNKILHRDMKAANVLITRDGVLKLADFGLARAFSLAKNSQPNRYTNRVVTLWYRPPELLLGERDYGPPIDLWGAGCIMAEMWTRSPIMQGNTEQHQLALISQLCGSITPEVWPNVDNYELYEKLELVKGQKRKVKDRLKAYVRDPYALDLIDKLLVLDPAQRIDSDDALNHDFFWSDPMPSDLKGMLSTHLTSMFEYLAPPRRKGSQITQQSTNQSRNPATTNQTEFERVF
T9 sequence (O75909 whole entry partner): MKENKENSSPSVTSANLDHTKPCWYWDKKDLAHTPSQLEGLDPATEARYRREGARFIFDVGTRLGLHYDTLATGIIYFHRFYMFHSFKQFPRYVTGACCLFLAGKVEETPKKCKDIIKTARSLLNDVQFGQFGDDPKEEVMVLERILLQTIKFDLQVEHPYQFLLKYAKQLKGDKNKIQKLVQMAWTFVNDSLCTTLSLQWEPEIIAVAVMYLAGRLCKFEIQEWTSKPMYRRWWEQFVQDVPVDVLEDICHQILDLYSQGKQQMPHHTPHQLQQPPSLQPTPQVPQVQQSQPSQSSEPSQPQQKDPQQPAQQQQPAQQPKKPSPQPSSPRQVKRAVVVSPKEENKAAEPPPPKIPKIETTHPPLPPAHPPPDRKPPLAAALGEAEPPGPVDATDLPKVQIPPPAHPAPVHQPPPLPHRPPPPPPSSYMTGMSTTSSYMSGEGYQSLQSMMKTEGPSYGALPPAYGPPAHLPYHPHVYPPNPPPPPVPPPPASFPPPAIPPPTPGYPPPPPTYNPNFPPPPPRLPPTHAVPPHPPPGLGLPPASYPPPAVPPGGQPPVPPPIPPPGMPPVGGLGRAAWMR
T8 sequence (P50750 whole entry): as the sequence (P50750 whole entry) above
T8 sequence (O60563 whole entry partner): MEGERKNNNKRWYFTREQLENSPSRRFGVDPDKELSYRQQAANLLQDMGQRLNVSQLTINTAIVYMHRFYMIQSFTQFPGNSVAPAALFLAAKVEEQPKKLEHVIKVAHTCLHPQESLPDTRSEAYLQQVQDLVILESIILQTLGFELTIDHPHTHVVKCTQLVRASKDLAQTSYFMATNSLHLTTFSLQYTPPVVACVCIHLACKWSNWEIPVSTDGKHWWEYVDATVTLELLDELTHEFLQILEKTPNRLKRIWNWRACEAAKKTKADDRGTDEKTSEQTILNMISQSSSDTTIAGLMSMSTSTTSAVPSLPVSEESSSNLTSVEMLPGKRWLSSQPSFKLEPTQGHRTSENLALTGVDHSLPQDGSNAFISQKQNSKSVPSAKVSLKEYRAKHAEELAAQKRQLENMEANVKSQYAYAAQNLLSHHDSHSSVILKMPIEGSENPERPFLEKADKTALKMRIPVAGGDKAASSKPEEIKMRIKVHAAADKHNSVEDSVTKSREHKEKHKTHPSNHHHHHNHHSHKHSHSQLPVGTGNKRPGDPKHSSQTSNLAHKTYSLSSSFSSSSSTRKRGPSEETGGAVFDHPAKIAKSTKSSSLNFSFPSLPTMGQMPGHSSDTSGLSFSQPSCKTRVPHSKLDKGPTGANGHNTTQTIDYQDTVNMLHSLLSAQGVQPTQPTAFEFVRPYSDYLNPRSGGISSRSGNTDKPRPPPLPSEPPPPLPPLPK
T11 sequence (P45984 whole entry): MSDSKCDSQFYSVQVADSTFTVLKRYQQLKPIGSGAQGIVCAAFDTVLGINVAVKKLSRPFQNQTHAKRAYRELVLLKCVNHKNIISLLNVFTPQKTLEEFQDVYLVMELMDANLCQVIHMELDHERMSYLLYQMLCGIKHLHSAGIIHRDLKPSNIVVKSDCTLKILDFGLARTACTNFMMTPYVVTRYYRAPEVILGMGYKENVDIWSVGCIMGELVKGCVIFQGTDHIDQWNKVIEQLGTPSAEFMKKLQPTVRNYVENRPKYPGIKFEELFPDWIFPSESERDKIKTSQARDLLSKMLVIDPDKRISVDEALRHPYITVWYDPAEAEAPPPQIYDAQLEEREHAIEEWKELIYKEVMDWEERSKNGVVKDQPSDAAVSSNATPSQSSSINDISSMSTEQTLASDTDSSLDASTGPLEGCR
T3 sequence (P50613 whole entry): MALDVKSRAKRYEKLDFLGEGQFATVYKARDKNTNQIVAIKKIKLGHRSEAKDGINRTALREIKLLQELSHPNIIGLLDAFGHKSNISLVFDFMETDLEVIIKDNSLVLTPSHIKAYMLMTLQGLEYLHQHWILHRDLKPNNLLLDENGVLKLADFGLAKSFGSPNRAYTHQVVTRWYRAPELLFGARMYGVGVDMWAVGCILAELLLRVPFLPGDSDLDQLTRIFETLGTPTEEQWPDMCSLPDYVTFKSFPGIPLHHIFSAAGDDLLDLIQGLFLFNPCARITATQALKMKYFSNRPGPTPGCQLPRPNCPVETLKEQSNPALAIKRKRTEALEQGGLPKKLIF
T3 sequence (P51946 whole entry partner): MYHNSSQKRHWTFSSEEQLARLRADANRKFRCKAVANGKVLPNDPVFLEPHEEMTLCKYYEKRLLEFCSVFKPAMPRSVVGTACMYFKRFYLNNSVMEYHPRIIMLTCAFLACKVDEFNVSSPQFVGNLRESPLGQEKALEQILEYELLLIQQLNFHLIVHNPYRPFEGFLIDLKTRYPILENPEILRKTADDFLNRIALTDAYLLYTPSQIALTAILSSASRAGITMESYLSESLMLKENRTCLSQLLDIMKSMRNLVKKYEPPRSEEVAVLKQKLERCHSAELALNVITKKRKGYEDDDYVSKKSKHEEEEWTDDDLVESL
T3 sequence (P51948 whole entry partner): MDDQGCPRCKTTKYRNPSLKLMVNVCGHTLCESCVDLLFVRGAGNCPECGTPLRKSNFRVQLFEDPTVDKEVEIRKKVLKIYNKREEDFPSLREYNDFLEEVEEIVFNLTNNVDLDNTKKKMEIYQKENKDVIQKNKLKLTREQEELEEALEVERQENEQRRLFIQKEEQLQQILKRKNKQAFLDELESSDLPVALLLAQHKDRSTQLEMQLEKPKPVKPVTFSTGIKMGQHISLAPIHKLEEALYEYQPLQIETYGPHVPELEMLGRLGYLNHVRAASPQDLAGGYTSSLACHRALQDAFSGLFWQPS
T7 sequence (P49336 whole entry): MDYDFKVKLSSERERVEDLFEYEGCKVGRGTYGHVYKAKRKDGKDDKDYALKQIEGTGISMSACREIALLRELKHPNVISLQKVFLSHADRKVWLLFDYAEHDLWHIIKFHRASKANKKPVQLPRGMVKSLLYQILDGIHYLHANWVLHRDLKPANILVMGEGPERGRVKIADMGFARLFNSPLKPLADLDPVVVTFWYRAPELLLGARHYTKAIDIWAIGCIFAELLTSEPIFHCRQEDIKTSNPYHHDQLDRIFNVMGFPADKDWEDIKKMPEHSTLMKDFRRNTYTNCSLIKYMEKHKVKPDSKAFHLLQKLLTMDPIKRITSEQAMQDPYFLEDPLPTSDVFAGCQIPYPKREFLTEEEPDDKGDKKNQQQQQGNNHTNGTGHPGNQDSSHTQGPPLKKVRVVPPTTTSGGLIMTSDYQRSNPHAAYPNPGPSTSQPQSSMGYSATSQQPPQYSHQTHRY
T7 sequence (P24863 whole entry partner): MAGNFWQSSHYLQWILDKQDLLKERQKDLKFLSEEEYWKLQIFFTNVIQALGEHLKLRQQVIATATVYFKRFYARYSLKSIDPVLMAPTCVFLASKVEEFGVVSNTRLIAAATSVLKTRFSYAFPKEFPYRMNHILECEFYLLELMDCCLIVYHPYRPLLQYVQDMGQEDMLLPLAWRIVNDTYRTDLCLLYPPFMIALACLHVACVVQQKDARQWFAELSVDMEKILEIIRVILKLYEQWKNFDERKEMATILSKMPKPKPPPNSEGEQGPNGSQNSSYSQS
T10 sequence (P45983 whole entry): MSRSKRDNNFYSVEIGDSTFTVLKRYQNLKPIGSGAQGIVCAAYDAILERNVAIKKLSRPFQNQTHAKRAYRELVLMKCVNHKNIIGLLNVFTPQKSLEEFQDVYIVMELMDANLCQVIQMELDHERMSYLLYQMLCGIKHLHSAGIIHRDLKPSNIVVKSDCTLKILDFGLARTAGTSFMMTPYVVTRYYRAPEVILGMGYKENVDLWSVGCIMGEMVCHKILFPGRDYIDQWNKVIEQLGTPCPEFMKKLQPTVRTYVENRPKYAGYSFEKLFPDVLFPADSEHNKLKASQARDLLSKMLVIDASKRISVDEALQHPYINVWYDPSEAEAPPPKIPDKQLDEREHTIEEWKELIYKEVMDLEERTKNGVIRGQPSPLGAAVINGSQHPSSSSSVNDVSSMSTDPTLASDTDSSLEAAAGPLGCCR

CN(C)C/C=C/C(=O)Nc1ccc(C(=O)N2CCCC(Nc3ncc(Cl)c(-c4c[nH]c5ccccc45)n3)C2)cc1 (stereo not drawn) [Compound 100, (E)-N-(4-(3-(5-chloro-4-(1H-indol-3-yl)pyrimidin-2-ylamino)piperidine-1-carbonyl)phenyl)-4-(dimethylamino)but-2-enamide]
IC50 (CDK5/p25; p25 as co-factor, calculated, read-out: IC50 against CDK5): 3000 nM
IC50 (MLK3): 3200 nM
IC50 (Jurkat cells): < 500 nM

CN(C)C/C=C/C(=O)Nc1ccc(C(=O)N2CCCC(CNc3ncc(Cl)c(-c4c[nH]c5ccccc45)n3)C2)cc1 (stereo not drawn) [Compound 101, (E)-N-(4-(3-((5-chloro-4-(1H-indol-3-yl)pyrimidin-2-ylamino)methyl)piperidine-1-carbonyl)phenyl)-4-(dimethylamino)but-2-enamide]
IC50 (CDK7): 100 to 1000 nM
inhibition at 0.1 µM (CDK1; compound tested at 100 nM): < 50%
inhibition at 1 µM (CDK1; compound tested at 1 μM): < 50%
inhibition at 0.1 µM (CDK2; compound tested at 100 nM): < 50%
inhibition at 1 µM (CDK2; compound tested at 1 μM): < 50%
inhibition at 0.1 µM (CDK5/p25; compound tested at 100 nM, p25 co-factor): < 50%
inhibition at 1 µM (CDK5/p25; compound tested at 1 μM, p25 co-factor): < 50%
inhibition at 0.1 µM (CDK5/p35; compound tested at 100 nM): < 50%
inhibition at 1 µM (CDK5/p35; compound tested at 1 μM): < 50%
inhibition at 0.1 µM (CDK8; compound tested at 100 nM): < 50%
inhibition at 1 µM (CDK8; compound tested at 1 μM): < 50%
inhibition at 0.1 µM (CDK9/cyclin T1; compound tested at 100 nM): < 50%
inhibition at 1 µM (CDK9/cyclin T1; compound tested at 1 μM): < 50%
inhibition at 0.1 µM (CDK9/cyclin K; compound tested at 100 nM): < 50%
inhibition at 1 µM (CDK9/cyclin K; compound tested at 1 μM): < 50%
inhibition at 0.1 µM (JNK1; compound tested at 100 nM): 50 to 70%
inhibition at 1 µM (JNK1; compound tested at 1 μM): > 70%
inhibition at 0.1 µM (JNK2; compound tested at 100 nM): < 50%
inhibition at 1 µM (JNK2; compound tested at 1 μM): > 70%
IC50 (Jurkat cells): 500 to 5000 nM

CN(C)C/C=C/C(=O)Nc1ccc(NC(=O)N2CCCC(Nc3ncc(Cl)c(-c4c[nH]c5ccccc45)n3)C2)cc1 (stereo not drawn) [Compound 102]
IC50 (CDK7): 100 to 1000 nM
